# Measurements taken from patent US20130190314A1, “DERIVATIVES OF 6-CYCLOAMINO-2-THIENYL-3-(PYRIDIN-4-YL)IMIDAZO[1,2-b]-PYRIDAZINE AND 6-CYCLOAMINO-2-FURANYL-3-(PYRIDIN-4-YL)IMIDAZO[1,2-b]-PYRIDAZINE, PREPARATION AND THERAPEUTIC USE THEREOF” (priority 2008, published 2013).
# Experiments:
# [1] = molecular target: T1, casein kinase 1 epsilon (CK1 epsilon) (Homo sapiens, UniProt P49674); experiment: Filter-plate assay of ATP-33P: inhibition of phosphorylation of casein by CK1 epsilon; assay type: biochemical; conditions: casein substrate, 10 μM ATP, 2 hours at ambient temperature
# T1 construct: Invitrogen Corporation (alternative)
# Procedure: The capacity of the compounds of the invention to inhibit the phosphorylation of casein by casein kinase 1 epsilon and delta can be evaluated according to the procedure described in document US 2005/0131012.
# Filter-Plate Assay of ATP-^33P for the Screening of CK1 Epsilon Inhibitors:
# The effect of the compounds on inhibition of the phosphorylation of casein by the enzyme casein kinase 1 epsilon (CK1 epsilon) is measured using a casein assay with filtration of ATP-^33P in vitro.
# Casein kinase 1 epsilon (0.58 mg/ml) is obtained via fermentation and purification processes carried out according to methods well known to those skilled in the art, or may also be obtained from Invitrogen Corporation™ (human CK1 epsilon).
# The compounds are tested at five different concentrations so as to generate IC50 values, i.e. the concentration at which a compound is capable of inhibiting the enzymatic activity by 50%, or alternatively the % inhibition at a concentration of 10 micromolar.
# “U”-bottomed Falcon plates are prepared by placing 5 μl of solutions of the compounds according to the invention at concentrations of 10, 1, 0.1, 0.01 or 0.001 μM in various wells. The solutions of the compounds according to the invention at these various concentrations are prepared by diluting in a test buffer (50 mM Tris, pH 7.5, […], 2 mM DTT and 1 mM EGTA) a stock solution in DMSO at a concentration of 10 mM. Next, 5 μl of dephosphorylated casein are added to a final concentration of 0.2 μg/μl, 20 μl of CK1 epsilon are added to a final concentration of 3 ng/μl, and 20 μl of ATP-^33P are added to a final concentration of 0.02 μCi/μl mixed with cold ATP (10 μM final—approximately 2×10^6 CPM per well). The final total test volume per well is equal to 50 μl.
# The “U”-bottomed Falcon® test plate mentioned above is vortexed, and then incubated at ambient temperature for 2 hours. After 2 hours, the reaction is stopped by adding an ice-cold solution of 65 μl of cold ATP (2 mM) prepared in test buffer. 100 μl of the reaction mixture are then transferred from the “U”-bottomed Falcon®plate into Millipore MAPH filter plates, preimpregnated with 25 μl of ice-cold 100% TCA. […]
# The plates are left to dry overnight at ambient temperature. […] The radiation emitted by each well is then measured for 2 minutes in a Packard® Topcount NXT scintillation counter, in which the values of CPM/well are measured.
# The % inhibition of the capacity of the enzyme to phosphorylate the substrate (casein) is determined for each concentration of compound tested. These inhibition data expressed as percentages are used to calculate the IC50 value for each compound compared with the controls.
# The kinetic studies determined the KM value for ATP as being 21 μM in this test system.
# [2] = test system: Mper1-luc Rat-1 (P2C4) fibroblasts; experiment: Circadian cell assay: mPer1-promoter luciferase reporter, period prolongation; assay type: cell-based; conditions: effective concentration that induced a 1-hour prolongation of the circadian period
# Procedure: Mper1-luc Rat-1 (P2C4) fibroblast cultures were prepared by dividing the cultures every 3-4 days (approximately 10-20% of confluence) on 150 cm^2 degassed polystyrene tissue culture flasks (Falcon® #35-5001) and maintained in growth medium [EMEM (Cellgro #10-010-CV); 10% foetal bovine serum (FBS; Gibco #16000-044); and 50 I.U./ml of penicillin-streptomycin (Cellgro #30-001-CI)] at 37° C. and under 5% CO2.
# Cells obtained from Rat-1 fibroblast cultures at 30-50% of confluence as described above were co-transfected with vectors containing the selectable marker for zeocin resistance for a stable transfection and a luciferase reporter gene controlled by the mPer-1 promoter. After 24 to 48 hours, the cultures were divided on 96-well plates and maintained in growth medium supplemented with 50-100 μg/ml of zeocin (Invitrogen® #45-0430) for 10-14 days. The zeocin-resistant stable transfectants were evaluated for the expression of the reporter gene by adding 100 μM luciferin (Promega® #E1603®) to the growth medium and by assaying the luciferase activity on a TopCount® scintillation counter (Packard Model #C384V00). The Rat-1 cell clones expressing both zeocin resistance and luciferase activity controlled by mPer1 were serum-shock synchronized with 50% horse serum [HS (Gibco® #16050-122)] and the activity of the circadian reporter was evaluated. The P2C4 clone of Mper1-luc Rat-1 fibroblasts was selected to test the compound.
# Mper1-luc Rat-1 (P2C4) fibroblasts at 40-50% of confluence, obtained according to the protocol described above, were plated out onto 96-well opaque tissue culture plates (Perkin Elmer® #6005680). The cultures are maintained in growth medium supplemented with 100 μg/mL of zeocin (Invitrogen #45-0430) until they have reached 100% of confluence (48-72 h). The cultures were then synchronized with 100 μl of synchronization medium [EMEM (Cellgro #10-010-CV); 100 I.U./ml of penicillin-streptomycin (Cellgro #30-001-C1); HS at 50% (Gibco #16050-122)] for 2 hours at 37° C. and under 5% CO2. After synchronization, the cultures were rinsed with 100 μl of EMEM (Cellgro #10-010-CV) for 10 minutes at ambient temperature. After rinsing, the medium was replaced with 300 μl of CO2 independent medium [CO2I (Gibco #18045-088); 2 mM L-glutamine (Cellgro #25-005-C1); 100 I.U./ml of penicillin-streptomycin (Cellgro #30-001-C1); 100 μM luciferin (Promega #E 1603)]. […]
# The period analysis was performed either by determining the interval between the relative light emission minima over several days or by Fourier transform. […] The data were analysed by adjusting a hyperbolic curve to the data expressed as change of period (Y-axis) as a function of the concentration of the test compound (X-axis) in the XLfit™ software, and the CE Delta (t+1 h) was interpolated from this curve.
# T1 sequence (P49674 whole entry): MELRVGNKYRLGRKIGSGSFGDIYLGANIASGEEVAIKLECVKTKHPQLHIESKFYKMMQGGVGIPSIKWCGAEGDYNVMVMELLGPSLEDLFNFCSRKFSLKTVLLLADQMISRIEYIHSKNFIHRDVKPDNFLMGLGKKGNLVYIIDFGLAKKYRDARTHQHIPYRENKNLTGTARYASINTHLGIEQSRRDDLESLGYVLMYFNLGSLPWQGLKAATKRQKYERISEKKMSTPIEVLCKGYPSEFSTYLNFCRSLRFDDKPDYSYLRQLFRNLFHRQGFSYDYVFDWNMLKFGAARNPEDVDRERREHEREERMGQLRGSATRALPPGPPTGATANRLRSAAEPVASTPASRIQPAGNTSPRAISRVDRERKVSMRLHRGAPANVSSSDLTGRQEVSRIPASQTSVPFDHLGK
IC50 [1],SMILES,CE Delta (t + 1 h) [2]
19 nM,"OCCN1CCN(c2ccc3nc(-c4ccc(Cl)s4)c(-c4ccncc4)n3n2)CC1 [Compound 14, 2-{4-[2-(5-chlorothien-2-yl)-3-(pyridin-4-yl)imidazo[1,2-b]pyridazin-6-yl](piperazin-1-yl)}ethanol]",60 to 117 nM
87 nM,"Cc1ccc(-c2nc3ccc(N4CCNCC4)nn3c2-c2ccncc2)s1 [Compound 10, 2-(5-methylthien-2-yl)-6-(piperazin-1-yl)-3-(pyridin-4-yl)imidazo[1,2-b]pyridazine]",360 nM
